Data as given in patent publication US9492508B2, “Parathyroid hormone analogs and uses thereof” (The General Hospital Corporation, priority 2010, dated 2016).
Square brackets hold non-standard residues; d marks the D form. Peptide text beside a SMILES is read from it. hArg = N=C(N)NCCCC[C@H](N)C(=O)O; Aib = CC(C)(N)C(=O)O

Tests used:
human PTHR1 (RG) = target: T1, human PTHR1 (RG) (Homo sapiens, UniProt Q03431); experiment: Competition binding, RG conformation of human PTHR1 (COS-7 membranes); conditions: mean of 3 experiments, read-out: Binding human PTHR1 IC50 (Log M) RG (converted)
T1 construct: expressed in transfected cells; host or cells: COS-7 cells (membranes)
T1 sequence (Q03431 27-593): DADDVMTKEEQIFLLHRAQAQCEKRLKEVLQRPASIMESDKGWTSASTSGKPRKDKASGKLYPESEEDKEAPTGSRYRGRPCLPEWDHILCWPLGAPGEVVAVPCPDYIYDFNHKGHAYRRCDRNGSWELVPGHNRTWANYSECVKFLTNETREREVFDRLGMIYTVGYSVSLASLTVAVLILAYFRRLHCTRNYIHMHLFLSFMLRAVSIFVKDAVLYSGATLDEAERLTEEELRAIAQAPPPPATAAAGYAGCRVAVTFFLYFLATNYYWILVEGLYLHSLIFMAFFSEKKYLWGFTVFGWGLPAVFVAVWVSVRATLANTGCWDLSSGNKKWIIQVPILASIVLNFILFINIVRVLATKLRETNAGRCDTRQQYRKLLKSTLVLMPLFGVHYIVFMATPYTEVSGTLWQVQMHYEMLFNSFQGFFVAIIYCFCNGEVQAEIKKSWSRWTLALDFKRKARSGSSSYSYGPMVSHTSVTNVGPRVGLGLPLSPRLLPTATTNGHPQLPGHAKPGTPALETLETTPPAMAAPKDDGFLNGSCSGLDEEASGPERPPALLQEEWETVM
Method: (§1) Briefly, the R^0 form of the receptor can be favored by addition of the non-hydrolyzable nucleotide analog GTPγS. The RG form can be favored, for example, by co-transfection of cells with a negative dominant Gαs subunit. […] Data are means of four experiments, each performed in duplicate. Curves were fit to the data using Graph-Pad Prism 4.0.
(§2) Here, competition binding assays for the R^0 and RG PTHR1 conformation were performed in membranes prepared from transfected COS-7 cells, as described by Dean et al., Mol Endocrinol 22:156-66, 2008. Data are means of three experiments, each performed in duplicate. Curves were fit to the data using Graph-Pad Prism 4.0.

rat PTHR1 (RG) = target: T2, rat PTHR1 (RG) (Rattus norvegicus, UniProt P25961); experiment: Competition binding, RG conformation of rat PTHR1; conditions: FIG. 1B
T2 construct: expressed in transfected cells
T2 sequence (P25961 27-591): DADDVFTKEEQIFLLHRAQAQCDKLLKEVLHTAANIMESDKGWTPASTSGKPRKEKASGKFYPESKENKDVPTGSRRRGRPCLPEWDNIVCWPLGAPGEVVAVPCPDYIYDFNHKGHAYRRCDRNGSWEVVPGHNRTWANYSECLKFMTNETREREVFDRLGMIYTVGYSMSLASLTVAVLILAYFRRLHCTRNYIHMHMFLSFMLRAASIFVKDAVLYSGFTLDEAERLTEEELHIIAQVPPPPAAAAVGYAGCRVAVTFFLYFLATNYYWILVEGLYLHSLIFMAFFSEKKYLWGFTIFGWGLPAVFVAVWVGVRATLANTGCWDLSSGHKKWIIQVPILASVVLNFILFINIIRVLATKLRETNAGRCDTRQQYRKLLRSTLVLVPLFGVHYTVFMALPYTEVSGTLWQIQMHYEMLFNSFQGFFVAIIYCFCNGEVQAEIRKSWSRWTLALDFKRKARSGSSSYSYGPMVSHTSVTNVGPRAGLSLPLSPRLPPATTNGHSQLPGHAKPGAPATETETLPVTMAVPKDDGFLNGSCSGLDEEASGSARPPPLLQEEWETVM
Description: as §1

human PTHR1 (R0) = target: T3, human PTHR1 (R0) (Homo sapiens, UniProt Q03431); experiment: Competition binding, R0 conformation of human PTHR1 (COS-7 membranes, 125I-PTH(1-34) tracer, GTPγS); conditions: FIG. 5A
T3 construct: expressed in transfected cells; host or cells: COS-7 cells (membranes)
T3 sequence (Q03431 27-593): T1 sequence (Q03431 27-593)
Method: as §1, §2

MC3T3-E1 cells [1] = experiment: cAMP RIA in intact MC3T3-E1 cells; assay type: cell-based, mouse; conditions: 30 min, room temperature, IBMX
Method: cAMP stimulating activity of these polypeptides was also assessed, using two different methods: a radioimmunoassay (RIA; FIG. 2) and a cAMP responsive element fused to a luciferase gene (FIG. 3). Briefly, the RIA cAMP assays were performed in intact MC3T3-E1 cells, a mouse pre-osteoblastic cell line, in 96-well plates, as described by Okazaki et al. (Proc Natl Acad Sci USA 105:16525-30, 2008). […] The cAMP contents of the HCl lysates were then determined by RIA. Data are means of six experiments, each performed in duplicate. Curves were fit to the data using Graph-Pad Prism 4.0.

[2] = Solubility, in vitro precipitation assay (PBS pH 7.4 vs 10 mM acetic acid); assay type: physicochemical; conditions: pH 7.4
Method: The relative solubilities of SP-PTH-AAK (SEQ ID NO:4) and SP-PTH (SEQ ID NO:11) in different buffers were assessed in an in vitro precipitation assay. For each polypeptide, two vials, each containing 50 μg of lyophilized polypeptide powder, were prepared; one vial was reconstituted in 50 μl of PBS at pH 7.4; the other vial was reconstituted in 50 μl of 10 mM acetic acid (pH 2.9) to give final concentrations of 1.0 mg/ml […]. After one hour at room temperature, the vials were centrifuged at 15,000×g for 2 minutes. The supernatant was removed and the protein content assayed using the Pierce BCA assay (Thermo Fischer Scientific, Rockford, Ill.). For each polypeptide, the content of the PBS sample was expressed as percent of the content of the corresponding acetic acid sample.

rat PTHR1 (R0) = target: T4, rat PTHR1 (R0) (Rattus norvegicus, UniProt P25961); experiment: Competition binding, R0 conformation of rat PTHR1; conditions: R0 conformation; read-out: Binding rat PTHR1 IC50 nM R0
T4 sequence (P25961 27-591): T2 sequence (P25961 27-591)
Description: as §1

MC3T3-E1 cells [3] = experiment: cAMP response following ligand wash-out in MC3T3-E1 cells; assay type: cell-based, mouse; conditions: 100 nM ligand 5 min, then wash-out; FIGS. 7A, 7B
Method: Cells were treated at room temperature with vehicle or the indicated ligand (100 nM) for five minutes; for each ligand duplicate wells were used to obtain the initial (maximum cAMP values); in these wells, cells were co-incubated with ligand and IBMX. After five minutes of initial treatment, the buffer was removed, and, for the initial wells, the reactions were terminated by addition of 50 mM HCl. In the other wells, the cells were rinsed three times with buffer, and incubated in buffer for varying times, as indicated on the abscissa; after which the buffer was replaced by a buffer containing IBMX, and the cells were incubated for another five minutes. After that, the buffer was removed and the reactions were terminated by addition of 50 mM HCl. The cAMP contents of the HCl lysates were then determined by RIA.

[4] = Blood Ca++ responses in mice; assay type: in vivo, mice (C57 BL/6); conditions: 5 nmol/kg s.c., 4, 6, 8 and 24 hours
Method: Blood Ca^++ responses in mice were also assayed. Mice (C57 BL/6) were injected subcutaneously with either vehicle or the indicated ligand to give a final dose of 5 nmol/kg body weight, and blood was withdrawn via the tail at times after injection and assessed for Ca^++ concentration using a Bayer Rapid Lab model 348 blood analyzer. […] A similar experiment using 10 nmol/kg by intravenous injection was also conducted with similar results (FIGS. 8C and 8D).

[5] = rat, in vivo, iv, 24.3 nmol/kg
in vivo = conditions: Crl:CD(SD), rat, iv, 24.3 nmol/kg
PD PTH receptor = target: T5, PD PTH receptor (Mus musculus, UniProt P41593, S489A/S491A/S492A/S493A/S495A/S501A/S504A); experiment: Blood calcium and cAMP in knock-in mice with phosphorylation-deficient (PD) PTH receptor vs wild-type; assay type: in vivo
T5 construct: endogenous in cells; host or cells: knock-in mice (in vivo)
T5 sequence (P41593 27-591 S489A/S491A/S492A/S493A/S495A/S501A/S504A): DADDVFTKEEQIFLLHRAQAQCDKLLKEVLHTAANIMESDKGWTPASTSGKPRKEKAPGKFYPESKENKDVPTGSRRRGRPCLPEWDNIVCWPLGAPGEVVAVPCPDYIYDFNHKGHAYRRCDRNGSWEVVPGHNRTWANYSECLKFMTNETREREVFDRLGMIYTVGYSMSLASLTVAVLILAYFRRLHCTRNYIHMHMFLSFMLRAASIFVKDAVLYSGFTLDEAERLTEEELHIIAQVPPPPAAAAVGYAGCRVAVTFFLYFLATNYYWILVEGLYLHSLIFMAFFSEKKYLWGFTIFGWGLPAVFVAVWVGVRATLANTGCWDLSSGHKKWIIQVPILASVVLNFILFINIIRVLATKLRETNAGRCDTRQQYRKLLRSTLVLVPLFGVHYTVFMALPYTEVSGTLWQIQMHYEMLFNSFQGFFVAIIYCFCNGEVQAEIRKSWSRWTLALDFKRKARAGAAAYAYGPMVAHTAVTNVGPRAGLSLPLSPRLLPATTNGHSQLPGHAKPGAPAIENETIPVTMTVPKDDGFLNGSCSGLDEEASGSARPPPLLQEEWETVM
Method: The activity of SP-PTH-AAK (SEQ ID NO:4) was tested in “knock-in” mice that express a PD PTH receptor in place of the wild-type PTH receptor (Bounoutas et al., Endocrinology 147: 4674, 2006).
Blood cAMP levels were also compared between the two types of mice.

CC[C@H](C)[C@H](NC(=O)[C@H](CCC(=O)O)NC(=O)[C@H](C)NC(=O)[C@@H](NC(=O)[C@H](Cc1c[nH]cn1)NC(=O)[C@@H](NC(=O)[C@H](CCC(=O)O)NC(=O)[C@H](C)NC(=O)[C@@H](NC(=O)[C@H](CC(C)C)NC(=O)[C@H](CCCCN)NC(=O)[C@H](Cc1c[nH]cn1)NC(=O)[C@H](CC(C)C)NC(=O)[C@H](Cc1ccccc1)NC(=O)[C@H](C)NC(=O)[C@H](CCCNC(=N)N)NC(=O)[C@H](CCCNC(=N)N)NC(=O)[C@H](CCCNC(=N)N)NC(=O)[C@H](C)NC(=O)[C@H](CC(=O)O)NC(=O)[C@H](CCC(N)=O)NC(=O)[C@@H](NC(=O)[C@H](Cc1c[nH]c2ccccc12)NC(=O)[C@H](CCCCN)NC(=O)[C@H](C)NC(=O)[C@H](CCCCNC(=N)N)NC(=O)[C@H](CCC(N)=O)NC(=O)[C@H](Cc1c[nH]cn1)NC(=O)[C@H](CCSC)NC(=O)[C@H](CC(C)C)NC(=O)[C@H](CCC(N)=O)NC(=O)[C@@H](NC(=O)[C@H](CCC(=O)O)NC(=O)C(C)(C)NC(=O)[C@@H](NC(=O)[C@H](C)N)C(C)C)[C@@H](C)CC)[C@@H](C)CC)[C@@H](C)CC)[C@@H](C)CC)[C@@H](C)O)C(N)=O [AIB-SP-PTH-AAK, [Ala^1,12,18,22,Aib^3,Gln^10,Har^11,Trp^14,Lys^26]PTH(1-14)/PTHrP(15-36)] (H-AV[Aib]EIQLMHQ[hArg]AKWIQDARRRAFLHKLIAEIHTAEI-NH2; N-terminus assumed)
IC50 (human PTHR1 (RG)): 0.372 nM | binding to RG form of rat PTHR1, comparison in words (rat PTHR1 (RG)): increased | R0 binding at human PTH receptor as compared to PTH(1-34) (human PTHR1 (R0)): enhanced R^0 binding | EC50 (MC3T3-E1 cells [1]): 0.018 nM | cAMP MC3T3-E1 cells Emax (pmole/well) (MC3T3-E1 cells [1]): 57.9 ± 13.9 pmole/well | cAMP MC3T3-E1 cells EC50 (Log M) (MC3T3-E1 cells [1]; 6 experiments): −10.7 ± 0.1 Log M | solubility in PBS pH 7.4 (percent of acetic acid sample), in words [2]: solubility similar to hPTH(1-34)NH2 | IC50 (rat PTHR1 (R0)): 0.7 nM | cAMP-stimulating activity after ligand wash-out (MC3T3-E1 cells [3]): maintained cAMP-stimulating activity for longer periods of time than PTH(1-34) | blood calcium levels at later time points vs PTH(1-34) or vehicle [4]: increased

CC[C@H](C)[C@H](NC(=O)[C@H](CCC(=O)O)NC(=O)[C@H](CO)NC(=O)[C@@H](NC(=O)[C@@H](N)CO)C(C)C)C(=O)N[C@@H](CCC(N)=O)C(=O)N[C@@H](CC(C)C)C(=O)N[C@@H](CCSC)C(=O)N[C@@H](Cc1cnc[nH]1)C(=O)N[C@@H](CC(N)=O)C(=O)N[C@@H](CC(C)C)C(=O)NCC(=O)N[C@@H](CCCCN)C(=O)N[C@@H](Cc1cnc[nH]1)C(=O)N[C@@H](CC(C)C)C(=O)N[C@@H](CC(N)=O)C(=O)N[C@@H](CO)C(=O)N[C@@H](CCSC)C(=O)N[C@@H](CCC(=O)O)C(=O)N[C@@H](CCCN=C(N)N)C(=O)N[C@H](C(=O)N[C@@H](CCC(=O)O)C(=O)N[C@@H](Cc1c[nH]c2ccccc12)C(=O)N[C@@H](CC(C)C)C(=O)N[C@@H](CCCN=C(N)N)C(=O)N[C@@H](CCCCN)C(=O)N[C@@H](CCCCN)C(=O)N[C@@H](CC(C)C)C(=O)N[C@@H](CCC(N)=O)C(=O)N[C@@H](CC(=O)O)C(=O)N[C@H](C(=O)N[C@@H](Cc1cnc[nH]1)C(=O)N[C@@H](CC(N)=O)C(=O)N[C@@H](Cc1ccccc1)C(=O)O)C(C)C)C(C)C [PTH(1-34), hPTH(1-34)OH, reference compound]
AUCinf [5]: 1315 pmol·min/mL | AUClast [5]: 1308 pmol·min/mL | MRT (in vivo): 11.4 min | Vd (in vivo): 0.211 L/kg | clearance (in vivo): 18.5 mL/min/kg | half-life (in vivo): 7.78 min

M-PTH(1-28)
increases in blood calcium levels in PD mice as compared to wild-type mice (PD PTH receptor; FIGS. 17A, 17B): either reduced or eliminated | blood cAMP levels in PD mice as compared to wild-type mice (PD PTH receptor; FIGS. 18A, 18B): increased in magnitude and prolonged in duration
